Assay results published in ChEMBL document CHEMBL2150849, “Sesquiterpenoids from the mangrove-derived endophytic fungus Diaporthe sp” (J Nat Prod, 2012).
The source made the active and inactive calls.

Key:
Format in all cases: functional, cell-based
SGC-7901 = assay: Cytotoxicity against human SGC7901 cells at 20 uM by MTT assay
MCF7 = assay: Cytotoxicity against human MCF7 cells at 20 uM by MTT assay
QGY7701 = assay: Cytotoxicity against human QGY7701 cells at 20 uM by MTT assay
A549 = assay: Cytotoxicity against human A549 cells at 20 uM by MTT assay

Measured: Activity

C[C@]1(CO)CCC[C@]2(C)[C@@H](CO)[C@](C)(O)CC[C@@H]12
inactive: all assays above

CC1=C[C@@H]2C[C@H](C)C[C@H](C)[C@H]2[C@](C)(C(=O)CCO)[C@@H]1C(=O)O
inactive: all assays above

CC1(C)C(=O)CC[C@]2(C)[C@@H](CO)[C@](C)(O)CC[C@@]12O
inactive: all assays above

CC1=C(CO)[C@@]2(C)CCCC(C)(C)[C@@H]2C[C@H]1O
inactive: all assays above

CC1=C(CO)[C@@]2(C)C[C@@H](O)CC(C)(C)[C@@H]2CC1=O
inactive: all assays above

CC1(C)[C@@H](O)CC[C@]2(C)C3=C(CC[C@@H]12)C(=O)OC3
inactive: all assays above

CC1(C)CCC[C@]2(C)[C@@H](C(=O)O)[C@](C)(O)CC[C@@H]12
inactive: all assays above

CC1=C(CO)[C@@]2(C)CC[C@H](O)C(C)(C)[C@@H]2CC1=O
inactive: all assays above

CC1=C(CO)[C@@]2(C)CCC[C@@](C)(CO)[C@@H]2CC1=O
inactive: all assays above

CC1(C)CC(=O)C[C@]2(C)[C@@H](CO)[C@](C)(O)CC[C@@H]12
inactive: all assays above

CC(C)(O)[C@]12CCC3=C(COC3=O)[C@@]1(C)CCC(=O)O2
inactive: all assays above
